# Data from PMC12378631, “Novel macrocyclic peptidomimetics targeting the insulin-regulated aminopeptidase (IRAP): design, synthesis and evaluation” (RSC Medicinal Chemistry, 2025).
# pIC50: −log10 of the molar value.
# Tests used:
# [1] = cited from earlier work
# [2] = system: dendritic spine density in the hippocampus; parameters: method as in PMID 26769413; settings: cited from earlier work
# [3] = system: rodent models of cognitive impairment; parameters: method as in PMID 10234025, PMID 11707427, PMID 3252173, PMID 14980384; settings: cited from earlier work
# [4] = molecular target: insulin-regulated aminopeptidase (IRAP) (Homo sapiens, UniProt Q9UIQ6); settings: for IC50 higher than compound 37: compared with compound 37
# insulin-regulated aminopeptidase (IRAP), sequence (Q9UIQ6 whole entry): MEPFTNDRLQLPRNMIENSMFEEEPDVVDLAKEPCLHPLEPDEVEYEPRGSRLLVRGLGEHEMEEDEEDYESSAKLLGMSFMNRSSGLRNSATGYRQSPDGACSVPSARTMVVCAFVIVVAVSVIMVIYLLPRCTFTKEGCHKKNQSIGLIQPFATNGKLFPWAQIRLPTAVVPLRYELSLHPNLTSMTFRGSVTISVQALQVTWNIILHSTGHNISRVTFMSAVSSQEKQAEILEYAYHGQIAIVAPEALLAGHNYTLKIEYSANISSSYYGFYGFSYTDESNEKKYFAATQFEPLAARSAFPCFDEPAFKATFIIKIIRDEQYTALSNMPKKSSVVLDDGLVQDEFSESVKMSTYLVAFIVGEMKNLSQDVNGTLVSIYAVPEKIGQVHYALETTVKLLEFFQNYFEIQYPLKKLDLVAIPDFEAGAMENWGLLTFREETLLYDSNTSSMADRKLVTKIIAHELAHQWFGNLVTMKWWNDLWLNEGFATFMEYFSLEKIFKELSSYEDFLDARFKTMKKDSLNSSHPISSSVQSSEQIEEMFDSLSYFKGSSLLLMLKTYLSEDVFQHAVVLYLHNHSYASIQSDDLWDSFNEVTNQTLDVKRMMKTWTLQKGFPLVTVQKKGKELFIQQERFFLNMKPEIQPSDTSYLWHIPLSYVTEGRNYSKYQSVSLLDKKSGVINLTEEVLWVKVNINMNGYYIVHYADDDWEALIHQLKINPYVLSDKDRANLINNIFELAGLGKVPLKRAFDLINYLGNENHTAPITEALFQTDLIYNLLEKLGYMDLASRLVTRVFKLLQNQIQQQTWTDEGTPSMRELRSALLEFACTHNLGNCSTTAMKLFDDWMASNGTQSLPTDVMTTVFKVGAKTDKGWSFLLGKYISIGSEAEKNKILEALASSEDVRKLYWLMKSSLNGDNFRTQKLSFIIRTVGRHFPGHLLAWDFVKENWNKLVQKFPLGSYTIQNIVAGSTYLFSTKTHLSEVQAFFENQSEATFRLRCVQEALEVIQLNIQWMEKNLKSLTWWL
Compound,susceptibility to proteolytic degradation in vivo [1],dendritic spine density in the hippocampus [2],performance in rodent models of cognitive impairment [3],pIC50 [4],IC50 higher than compound 37 [4] [fold]
N[C@H]1CCSSC[C@@H](C(=O)NCc2ccccc2CC(=O)O)NC(=O)C[C@H](Cc2ccc(O)cc2)NC1=O [HA08],susceptible to proteolytic degradation in vivo,increase dendritic spine density in the hippocampus,–,–,–
Val–Tyr–Ile–His–Pro–Phe [Ang IV],–,–,improves performance in rodent models of cognitive impairment,–,–
N[C@H]1CCSSC[C@@H](C(=O)NCc2cccc(C(=O)O)c2)NC(=O)C[C@H](Cc2ccc(O)cc2)NC1=O [Compound 38],–,–,–,6.04,14
N[C@H]1CCSSC[C@@H](C(=O)NCc2ccc(C(=O)O)cc2)NC(=O)C[C@H](Cc2ccc(O)cc2)NC1=O [Compound 39],–,–,–,5.53,46
